Test results reported in article PMC6161010, “A Simple and Sensitive Liquid Chromatography with Tandem Mass Spectrometric Method for the Simultaneous Determination of Anthraquinone Glycosides and Their Aglycones in Rat Plasma: Application to a Pharmacokinetic Study of Rumex acetosa Extract” (Pharmaceutics, 2018).
Where two headings read alike, the source gives them in different places.

What was measured:
[1] = Stability of the analytes in rat plasma (method validation); assay type: in vitro ADME; details: n = 3; for Processed Sample Stability, Accuracy: processed rat plasma sample, 4 °C 24 h; for Short Term Stability, Accuracy / Freeze and Thaw Stability, Accuracy / Long Term Stability, Accuracy: rat plasma; for Short Term Stability, Accuracy: room temperature 4 h; for Freeze and Thaw Stability, Accuracy: three freeze-thaw cycles −80 °C to room temperature; for Long Term Stability, Accuracy: −80 °C one month
Experimental: (§1) The stability of the analytes in rat plasma was evaluated by analyzing triplicates of three QC levels at room temperature for 4 h (short-term stability), −80 °C for one month (long-term stability), three freeze-thaw cycles from −80 °C to room temperature (freeze and thaw stability), and 4 °C for 24 h (processed sample stability). The stability of analytes in stock solution was also evaluated. The peak areas obtained from freshly prepared stock solutions were compared with stock solutions stored for 4 h at room temperature.

[2] = Stability of analytes in stock solution; assay type: physicochemical; details: stock solutions stored at room temperature for 4 h, n = 3
Experimental: The primary stock solutions of E, EG, C, CG, P, PG, and IS were prepared in dimethyl sulfoxide at a concentration of 1 mg/mL and stored at −80 °C. The mixture stock solutions to obtain the standard solutions were serially diluted in methanol. The IS stock solution of 5 ng/mL was prepared in methanol. The calibration standards were prepared by spiking 10 μL of above standard solutions into 90 μL of blank rat plasma to yield concentration ranges of 1–300 ng/mL for E, 20–300 ng/mL for P and C, 1–150 ng/mL for EG, 10–150 ng/mL for CG and PG. Twenty microliters of aliquots were prepared and stored at −80 °C until analysis.
as §1

[3] = Pharmacokinetic study after oral administration of R. acetosa extract to rats; assay type: in vivo, Sprague‒Dawley rats; details: oral R. acetosa extract 2 g/kg; for MRT / half-life / Tmax / first time detected in plasma of every rat (first sampling time) / time until which the analyte could be detected in plasma / time from which plasma concentrations were below the LLOQ / plasma concentrations (in words): rat; for MRT / half-life / Cmax / AUC(0-t): n = 3, mean ± SD; for Cmax / AUC(0-t): rat plasma; for AUC(0-t): last measured time points for C, E, CG, PG 6, 24, 8, 6 h
Experimental: The analysis was performed on an Agilent 1260 series (Agilent Technologies, Waldbronn, Germany) HPLC system. Chromatographic separation of the samples was carried out on a Kinetex Biphenyl column (100 × 3.0 mm, 2.6 μm, 110 Å, Phenomenex, Torrance, CA, USA). The mobile phase consisted of 2 mM ammonium formate (pH 6) in water (A) and 2 mM ammonium formate (pH 6) in methanol (B). The gradient program was used at a flow rate of 0.3 mL/min while maintaining the column temperature at 40 °C. The mobile phase initial composition of 25% B was maintained for 2 min. It was then increased linearly from 25% to 95% B for 0.5 min and held for 7 min. The gradient was then changed back to the initial condition for 0.5 min and kept at the initial condition for 3 min. The total analysis time was 13 min for each sample. The injection volume was 15 μL.
The mass spectrometric detection was performed on an Agilent 6460 triple-quadruple mass spectrometer (Agilent Technologies, Singapore) with an electrospray ionization source. It was operated in the negative ion detection mode because of its higher sensitivity than that in the positive ionization mode on multiple reaction monitoring (MRM). The data were acquired and processed using Mass Hunter Workstation B.06.00 software (Agilent Technologies, Singapore). The source parameters were also optimized as follows: a drying gas flow and temperature at 6 L/min and 350 °C were used, respectively; the sheath gas flow and temperature were maintained at 12 L/min and 350 °C, respectively; the nebulizing gas (N2) pressure was set at 25 psi; and the capillary and nozzle voltages were set at 3500 V and 500 V, respectively.
To 20 μL aliquot of the rat plasma samples, 60 μL of 5 ng/mL IS in methanol was added. The mixture was vortexed for 30 s and kept at 4 °C for 30 min. The mixture was centrifuged at 10,000× g for 10 min. The supernatant was transferred to an HPLC vial, and 15 μL of the processed sample was injected onto the LC-MS/MS system.
Male Sprague‒Dawley rats (8-week-old, weighing 250 ± 10 g) were obtained from Koatech (Pyeongtaek, Korea). They were housed and acclimated in the Animal Laboratory, Gyeongsang National University, under controlled temperature and humidity and regular 12 h light cycle, freely accessible to food and water for 7 days before the experiment. The rats were cannulated into the carotid artery and allowed to recover for one day. Before the pharmacokinetic study, all rats were fasted for 12 h with free access to water. R. acetosa extract suspended in a solution (ethanol:polysorbate 80:water = 1:2:7, v/v/v) was orally administered to the three rats at a dose of 2 g/kg. The calculated doses of compounds based on the contents in the extract were 18.8, 25.8, 13.6, 15.4, 3.4, and 8.2 mg/kg for E, EG, C, CG, P, and PG, respectively. Blood samples (100 µL) were collected via the cannulated carotid vessel at 0, 15, 30, 45 min, 1, 2, 3, 4, 6, 8, 12, and 24 h after oral administration. To collect plasma, the blood samples were immediately centrifuged at 10,000× g for 5 min. All plasma samples were stored at −80 °C until analysis. All experimental procedures of the animal study were approved (GNU-130618-R0038) by the Animal Care and Use Committee of Gyeongsang National University, Korea.

[4] = set-up: method as in doi:10.1039/C5RA27273D; details: hyperlipidemic hamsters after administration of rhubarb; cited from earlier work
[5] = set-up: method as in PMID 19921750; details: after administration of emodin 40 mg/kg; rapidly and extensively metabolized to its glucuronide; cited from earlier work
[6] = high QC (P, E, C 300; PG, EG, CG 150 ng/mL)
[7] = low QC (P, C 60; E, EG 3; PG, CG 30 ng/mL)
[8] = middle QC (P, E, C 150; PG, EG, CG 75 ng/mL)
[9] = male, Sprague-Dawley, plasma, n = 3, median (range), read-out: Tmax
[10] = male, Sprague-Dawley, plasma, read-out: Median Tmax (converted)

Row | Processed Sample Stability, Accuracy [1, 6] [%] | Processed Sample Stability, Accuracy [1, 7] [%] | Processed Sample Stability, Accuracy [1, 8] [%] | Short Term Stability, Accuracy [1, 6] [%] | Short Term Stability, Accuracy [1, 7] [%] | Short Term Stability, Accuracy [1, 8] [%] | Freeze and Thaw Stability, Accuracy [1, 6] [%] | Freeze and Thaw Stability, Accuracy [1, 7] [%] | Freeze and Thaw Stability, Accuracy [1, 8] [%] | Long Term Stability, Accuracy [1, 6] [%] | Long Term Stability, Accuracy [1, 7] [%] | Long Term Stability, Accuracy [1, 8] [%] | mean concentration in stock solution compared with fresh stock solutions [2] [%] | MRT ([3]; male, Sprague-Dawley, plasma) [h] | half-life ([3]; male, Sprague-Dawley, plasma) [h] | Tmax [3, 9] [h] | Cmax ([3]; male, Sprague-Dawley) [µg/mL] | AUC(0-t) ([3]; male, Sprague-Dawley) [µg·h/mL] | first time detected in plasma of every rat (first sampling time) [3] [min] | Structure (SMILES) | time until which the analyte could be detected in plasma [3] [h] | other results
1 | 96.7 | 91.1 | 100.2 | 101.8 | 97.6 | 96.9 | 97.0 | 98.3 | 101.0 | 101.5 | 97.5 | 100.6 | 101.7 | 2.4 ± 0.08 | 4.8 ± 0.5 | 2 | 0.0287 ± 0.0047 | 0.158 ± 0.0123 | 15 | Cc1cc(O)c2c(c1)C(=O)c1cccc(O[C@@H]3O[C@H](CO)[C@@H](O)[C@H](O)[C@H]3O)c1C2=O [CG, chrysophanol-8-O-β-D-glucoside] | 8 | –
2 | 102.3 | 101.5 | 103.7 | 101.2 | 103.5 | 98.6 | 92.4 | 89.7 | 91.8 | 102.6 | 104.3 | 97.9 | 95.9 | 2.4 ± 0.2 | 3.9 ± 0.6 | – | 0.156 ± 0.086 | 0.266 ± 0.0709 | 15 | Cc1cc(O)c2c(c1)C(=O)c1cccc(O)c1C2=O [C, chrysophanol] | – | Tmax [3, 10]: 0.25 h; time from which plasma concentrations were below the LLOQ [3]: 6 h; Tmax ([3]; n = 3, median (range)): 0.25 (0.25–0.5) h
3 | 100.3 | 91.5 | 107.9 | 98.9 | 99.8 | 108.5 | 100.9 | 100.4 | 112.3 | 102.8 | 102.9 | 107.9 | 100.4 | – | – | – | – | – | – | Cc1cc(O)c2c(c1)C(=O)c1cc(O)cc(O[C@@H]3O[C@H](CO)[C@@H](O)[C@H](O)[C@H]3O)c1C2=O [EG, emodin-8-O-β-D-glucoside] | – | detection in plasma (in words) [4]: not detected; plasma concentrations (in words) [3]: not high enough to determine the pharmacokinetic parameters
4 | 102.7 | 102.2 | 101.6 | 103.8 | 104.9 | 98.9 | 104.2 | 103.6 | 103.9 | 98.0 | 107.3 | 100.1 | 99.2 | – | – | – | – | – | – | COc1cc(O)c2c(c1)C(=O)c1cc(C)cc(O)c1C2=O [P, physcion] | – | plasma concentrations (in words) [3]: not high enough to determine the pharmacokinetic parameters
5 | 96.8 | 98.8 | 92.7 | 96.7 | 98.9 | 91.8 | 93.6 | 101.5 | 94.3 | 97.1 | 97.7 | 98.5 | 102.4 | 2.7 ± 0.6 | 6.2 ± 3.9 | 0.75 | 0.0205 ± 0.0014 | 0.0828 ± 0.0138 | 15 | COc1cc(O[C@@H]2O[C@H](CO)[C@@H](O)[C@H](O)[C@H]2O)c2c(c1)C(=O)c1cc(C)cc(O)c1C2=O [PG, physcion-8-O-β-D-glucoside] | – | time from which plasma concentrations were below the LLOQ [3]: 6 h

Row | Structure (SMILES) | Processed Sample Stability, Accuracy [1, 6] [%] | Processed Sample Stability, Accuracy [1, 7] [%] | Processed Sample Stability, Accuracy [1, 8] [%] | Short Term Stability, Accuracy [1, 6] [%] | Short Term Stability, Accuracy [1, 7] [%] | Short Term Stability, Accuracy [1, 8] [%] | Freeze and Thaw Stability, Accuracy [1, 6] [%] | Freeze and Thaw Stability, Accuracy [1, 7] [%] | Freeze and Thaw Stability, Accuracy [1, 8] [%] | Long Term Stability, Accuracy [1, 6] [%] | Long Term Stability, Accuracy [1, 7] [%] | Long Term Stability, Accuracy [1, 8] [%] | mean concentration in stock solution compared with fresh stock solutions [2] [%] | MRT ([3]; male, Sprague-Dawley, plasma) [h] | half-life ([3]; male, Sprague-Dawley, plasma) [h] | Tmax [3, 9] [h] | Cmax ([3]; male, Sprague-Dawley) [µg/mL] | AUC(0-t) ([3]; male, Sprague-Dawley) [µg·h/mL] | first time detected in plasma of every rat (first sampling time) [3] [min] | time until which the analyte could be detected in plasma [3] [h] | other results
6 | Cc1cc(O)c2c(c1)C(=O)c1cc(O)cc(O)c1C2=O [E, emodin] | 104.6 | 108.2 | 108.0 | 101.8 | 103.2 | 100.7 | 102.0 | 107.5 | 104.5 | 107.7 | 106.8 | 107.8 | 94.8 | 7.7 ± 3 | – | – | 0.123 ± 0.0417 | 1.17 ± 0.336 | 15 | 24 | detection of the parent form (in words) [5]: almost undetectable; time until which the analyte could be detected [4]: 36 h; Tmax [3, 10]: 0.25 h; Tmax ([3]; n = 3, median (range)): 0.25 (0.25–0.75) h
